The target of one test is T1, hCPT2 (Homo sapiens, UniProt P23786).
T1 construct: made in house; host or cells: Pichia pastoris strain X-33
T1 sequence (P23786 26-658): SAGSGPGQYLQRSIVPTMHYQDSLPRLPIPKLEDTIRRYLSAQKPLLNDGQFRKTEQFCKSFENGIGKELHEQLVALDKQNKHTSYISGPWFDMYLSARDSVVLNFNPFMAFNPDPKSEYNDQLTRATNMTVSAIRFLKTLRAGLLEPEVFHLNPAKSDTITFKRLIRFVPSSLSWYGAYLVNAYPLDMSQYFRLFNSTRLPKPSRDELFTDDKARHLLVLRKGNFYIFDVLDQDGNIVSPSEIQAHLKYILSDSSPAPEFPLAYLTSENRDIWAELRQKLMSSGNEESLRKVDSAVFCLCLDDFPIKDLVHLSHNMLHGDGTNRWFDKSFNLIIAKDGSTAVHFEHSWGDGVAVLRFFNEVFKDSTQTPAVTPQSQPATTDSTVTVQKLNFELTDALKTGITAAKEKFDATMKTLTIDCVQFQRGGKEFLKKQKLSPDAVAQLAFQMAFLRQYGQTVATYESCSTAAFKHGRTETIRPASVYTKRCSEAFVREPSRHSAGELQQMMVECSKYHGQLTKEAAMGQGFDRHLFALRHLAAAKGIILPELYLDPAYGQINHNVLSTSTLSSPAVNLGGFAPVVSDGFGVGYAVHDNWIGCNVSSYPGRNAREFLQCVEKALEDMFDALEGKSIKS
The test is described as follows: CPT2 inhibition, spectrophotometric DTNB (Ellman's reagent) assay. Type of test: biochemical. The conditions noted are these: human CPT2 expressed in P. pastoris, cell extract; carnitine 500 μM, palmitoyl-CoA 80 μM, DTNB 300 μM. Here is the method:
(§1) The following tests were carried out in order to determine the activity of the compounds of the present invention. Background information on the performed assays can be found in: Jackson et al., 1999, Biochem. J. 341, 483-489 and Jackson et al., 2000, J. Biol. Chem. 275, 19560-19566.
(§2) Human and rat CPT2- and liver CPT1 cDNAs, and human muscle CPT1 cDNA were subcloned in pGAPZB or pGAPZA, respectively. These plasmids were used to transform P. pastoris strain X-33 via electroporation after the preparation of electrocompetent cells. High copy number clones were selected where necessary using 0.5 or 1 mg/ml Zeocin. Cultures for activity measurements were induced for 16 h in YPD medium (1% yeast extract, 2% peptone, 2% glucose). Crude cell extracts were prepared by disrupting the cells with glass beads or French Press, depending on fermenter sizes. After centrifugation, the cell-free extracts were resuspended in cell breaking buffer (50 mM Tris, pH7.4, 100 mM KCl, 1 mM EDTA) in the presence of a protease inhibitor cocktail, before aliquoting and freezing at −20° C.
(§3) CPT activity was measured using a spectrophotometric assay using 5,5′-dithio-bis-(2-nitrobenzoic acid) (DTNB) also called Ellman's reagent. The HS-CoA released on the formation of acylcarnitine from carnitine (500 μM) and palmitoyl-CoA (80 μM) reduced DTNB (300 μM) forming 5-mercapto-2-nitrobenzoic acid which absorbed at 410 nm with a molar extinction coefficient of 13600 M^−1cm^−1. The assay buffer contained 120 mM KCl, 25 mM Tris, pH 7.4, 1 mM EDTA. This assay was used for the identification of CPT inhibitors, particularly/preferentially CPT2-selective inhibitors, versus the liver and muscle CPT1 isoforms.

The next test has as its target T2, hL-CPT1 (Homo sapiens, UniProt P50416).
T2 construct: made in house; host or cells: Pichia pastoris strain X-33
T2 sequence (P50416 1-773): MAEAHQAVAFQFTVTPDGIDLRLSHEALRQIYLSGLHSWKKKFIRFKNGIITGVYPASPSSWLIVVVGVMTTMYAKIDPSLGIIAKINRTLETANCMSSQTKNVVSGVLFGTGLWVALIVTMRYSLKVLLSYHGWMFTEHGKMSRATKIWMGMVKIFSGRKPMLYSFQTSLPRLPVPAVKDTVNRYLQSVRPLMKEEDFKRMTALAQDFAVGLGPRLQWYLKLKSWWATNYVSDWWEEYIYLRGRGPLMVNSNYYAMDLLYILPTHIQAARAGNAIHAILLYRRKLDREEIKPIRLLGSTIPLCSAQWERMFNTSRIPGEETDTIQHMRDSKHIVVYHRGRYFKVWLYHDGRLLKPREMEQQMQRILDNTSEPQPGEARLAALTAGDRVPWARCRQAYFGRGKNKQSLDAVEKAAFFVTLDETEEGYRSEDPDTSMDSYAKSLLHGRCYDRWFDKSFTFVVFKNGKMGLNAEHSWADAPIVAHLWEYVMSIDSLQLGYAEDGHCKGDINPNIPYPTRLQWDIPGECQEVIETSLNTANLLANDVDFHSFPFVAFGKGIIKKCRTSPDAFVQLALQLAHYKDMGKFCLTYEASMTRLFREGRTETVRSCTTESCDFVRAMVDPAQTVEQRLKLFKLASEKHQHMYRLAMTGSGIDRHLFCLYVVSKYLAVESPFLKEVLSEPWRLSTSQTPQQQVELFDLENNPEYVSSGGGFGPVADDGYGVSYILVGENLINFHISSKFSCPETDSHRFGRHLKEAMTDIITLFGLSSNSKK
In words: liver CPT1 inhibition, spectrophotometric DTNB (Ellman's reagent) assay. It counts as biochemical. Particulars: human liver CPT1 expressed in P. pastoris, cell extract; carnitine 500 μM, palmitoyl-CoA 80 μM, DTNB 300 μM. Here is the method: as §1, §2, §3

In patent US8344027B2, “4-dimethylaminobutyric acid derivatives” (Hoffmann-La Roche Inc., priority 2008, dated 2013) one finds IC50 data, which are given here for 23 compounds.

For orientation: IC50 means the concentration that inhibits the measured activity by half. On to `CN(C)C[C@@H](CC(=O)O)NC(=O)CCCCCCCCOc1ccc(F)c(F)c1F` [Example 24, (R)-4-Dimethylamino-3-[9-(2,3,4-trifluoro-phenoxy)-nonanoylamino]-butyric acid], for which the IC50 on hCPT2 was determined as 0.073 µM; at hL-CPT1 it was 5.36 µM.
Consider `CN(C)C[C@@H](CC(=O)O)NC(=O)CCCCCCCCOc1ccc(-c2ccccc2)cc1` [Example 25, (R)-3-[9-(Biphenyl-4-yloxy)-nonanoylamino]-4-dimethylamino-butyric acid], for which the IC50 amounted to 0.019 µM on hCPT2 and 1.47 µM against hL-CPT1.
The like results for `COc1ccc(OCCCCCCCCC(=O)N[C@H](CC(=O)O)CN(C)C)cc1OC` [Example 26, (R)-3-[9-(3,4-Dimethoxy-phenoxy)-nonanoylamino]-4-dimethylamino-butyric acid] were, in that order, 0.4 µM and 1.15 µM.
As to `CN(C)C[C@@H](CC(=O)O)NC(=O)CCCCCCCCOc1ccc(C(F)(F)F)cc1` [Example 27, (R)-4-Dimethylamino-3-[9-(4-trifluoromethyl-phenoxy)-nonanoylamino]-butyric acid], the results for the IC50 against hCPT2 and against hL-CPT1 were 0.17 µM and 2.19 µM, respectively.
Take `COc1ccc(OCCCCCCCCC(=O)N[C@H](CC(=O)O)CN(C)C)cc1` [Example 28, (R)-4-Dimethylamino-3-[9-(4-methoxy-phenoxy)-nonanoylamino]-butyric acid]: the IC50 came out at 0.015 µM on hCPT2 and 5.44 µM against hL-CPT1.
The corresponding values for `CN(C)C[C@@H](CC(=O)O)NC(=O)CCCCCCCCOc1cccc2ccccc12` [Example 29, (R)-4-Dimethylamino-3-[9-(naphthalen-1-yloxy)-nonanoylamino]-butyric acid] are 0.16 µM and greater than 10 µM.
Regarding `CN(C)C[C@@H](CC(=O)O)NC(=O)CCCCCCCCOc1ccccc1` [Example 31, (R)-4-Dimethylamino-3-(9-phenoxy-nonanoylamino)-butyric acid], the IC50 is 0.058 µM against hCPT2 and 2.41 µM against hL-CPT1.
In the case of `CN(C)C[C@@H](CC(=O)O)NC(=O)CCCCCCCCCc1ccccc1` [Example 32, (R)-4-Dimethylamino-3-(10-phenyl-decanoylamino)-butyric acid], the IC50 against hCPT2 came to 0.143 µM; on hL-CPT1 it was 7.02 µM.
As to `CN(C)C[C@H](CC(=O)O)NC(=O)CCCCCCCCCc1ccccc1` [Example 33, (S)-4-Dimethylamino-3-(10-phenyl-decanoylamino)-butyric acid], the IC50 against hCPT2 is 0.948 µM; against hL-CPT1, greater than 10 µM.
The like results for `CN(C)C[C@@H](CC(=O)O)NC(=O)CCCCCCCCCc1ccc(F)cc1` [Example 34, (R)-4-Dimethylamino-3-[10-(4-fluoro-phenyl)-decanoylamino]-butyric acid] were, in that order, 0.122 µM and 4.32 µM.
Consider `CN(C)C[C@@H](CC(=O)O)NC(=O)CCCCCCCCCc1ccccc1F` [Example 35, (R)-4-Dimethylamino-3-[10-(2-fluoro-phenyl)-decanoylamino]-butyric acid], for which the figures for the half-maximal inhibitory concentration (IC50) against hCPT2 and on hL-CPT1 were 0.046 µM and 3.59 µM, respectively.
The corresponding values for `Cc1ccc(C)c(CCCCCCCCCC(=O)N[C@H](CC(=O)O)CN(C)C)c1` [Example 36, (R)-4-Dimethylamino-3-[10-(2,5-dimethyl-phenyl)-decanoylamino]-butyric acid] are 0.317 µM and greater than 10 µM.
The like results for `Cc1cccc(C)c1CCCCCCCCCC(=O)N[C@H](CC(=O)O)CN(C)C` [Example 37, (R)-4-Dimethylamino-3-[10-(2,6-dimethyl-phenyl)-decanoylamino]-butyric acid] were, in that order, 0.241 µM and greater than 10 µM.
The like results for `COc1ccc(CCCCCCCCCC(=O)N[C@H](CC(=O)O)CN(C)C)cc1` [Example 38, (R)-4-Dimethylamino-3-[10-(4-methoxy-phenyl)-decanoylamino]-butyric acid] were, in that order, 0.017 µM and 6.91 µM.
On to `CN(C)C[C@@H](CC(=O)O)NC(=O)CCCCCCCCCc1cccc2ccccc12` [Example 39, (R)-4-Dimethylamino-3-(10-naphthalen-1-yl-decanoylamino)-butyric acid], for which the IC50 against hCPT2 was 0.003 µM; on hL-CPT1, greater than 10 µM.
The like results for `CN(C)C[C@@H](CC(=O)O)NC(=O)CCCCCCCCCc1ccc(C(F)(F)F)cc1` [Example 40, (R)-4-Dimethylamino-3-[10-(4-trifluoromethyl-phenyl)-decanoylamino]-butyric acid] were, in that order, 0.044 µM and 6.55 µM.
Regarding `CN(C)C[C@@H](CC(=O)O)NC(=O)CCCCCCCCCc1cccc(F)c1` [Example 41, (R)-4-Dimethylamino-3-[10-(3-fluoro-phenyl)-decanoylamino]-butyric acid], the IC50 against hCPT2 was 0.098 µM; on hL-CPT1, 7.72 µM.
`CN(C)C[C@@H](CC(=O)O)NC(=O)CCCCCCCCCc1cccc(F)c1F` [Example 42, (R)-3-[10-(2,3-Difluoro-phenyl)-decanoylamino]-4-dimethylamino-butyric acid]: the IC50 against hCPT2 came out at 0.022 µM; against hL-CPT1, 2.34 µM.
The like results for `CN(C)C[C@@H](CC(=O)O)NC(=O)CCCCCCCCCc1ccsc1` [Example 43, (R)-4-Dimethylamino-3-(10-thiophen-3-yl-decanoylamino)-butyric acid] were, in that order, 0.118 µM and 7.31 µM.
In the case of `CN(C)C[C@@H](CC(=O)O)NC(=O)CCCCCCCCCc1cncs1` [Example 44, (R)-4-Dimethylamino-3-(10-thiazol-5-yl-decanoylamino)-butyric acid], the values for the IC50 on hCPT2 and against hL-CPT1 were 1.06 µM and greater than 10 µM, respectively.
Take `CN(C)C[C@@H](CC(=O)O)NC(=O)CCCCCCCCCCc1ccccc1` [Example 50, (R)-4-Dimethylamino-3-(11-phenyl-undecanoylamino)-butyric acid]: the IC50 is 2.1 µM on hCPT2 and greater than 10 µM on hL-CPT1.
The like results for `CN(C)C[C@@H](CC(=O)O)NC(=O)CCCCCCCCCCCc1ccccc1` [Example 51, (R)-4-Dimethylamino-3-(12-phenyl-dodecanoylamino)-butyric acid] were, in that order, 0.184 µM and 1.06 µM.
The corresponding values for `CN(C)C[C@@H](CC(=O)O)NC(=O)NCCCCCCCCCc1ccccc1` [Example 63, (R)-4-Dimethylamino-3-[3-(9-phenyl-nonyl)-ureido]-butyric acid] are 0.332 µM and 2.87 µM.
